Data from paper doi:10.1101/2021.04.08.439011v1 (biorxiv, 2021).
Where two headings read alike, the source gives them in different places.

Assays:
p38-gamma = p38-gamma (Homo sapiens, UniProt P53778); conditions: 1 µM; binder
KIT(A829P) = KIT(A829P) (Homo sapiens, UniProt P10721, A829P); conditions: 1 µM; binder
LIMK1 = LIMK1 (Homo sapiens, UniProt P53667); conditions: 1 µM; binder
CAMK4 = CAMK4 (Homo sapiens, UniProt Q16566); conditions: 1 µM; binder
INSRR = INSRR (Homo sapiens, UniProt P14616); conditions: 1 µM; binder
INSRR, sequence (P14616 whole entry): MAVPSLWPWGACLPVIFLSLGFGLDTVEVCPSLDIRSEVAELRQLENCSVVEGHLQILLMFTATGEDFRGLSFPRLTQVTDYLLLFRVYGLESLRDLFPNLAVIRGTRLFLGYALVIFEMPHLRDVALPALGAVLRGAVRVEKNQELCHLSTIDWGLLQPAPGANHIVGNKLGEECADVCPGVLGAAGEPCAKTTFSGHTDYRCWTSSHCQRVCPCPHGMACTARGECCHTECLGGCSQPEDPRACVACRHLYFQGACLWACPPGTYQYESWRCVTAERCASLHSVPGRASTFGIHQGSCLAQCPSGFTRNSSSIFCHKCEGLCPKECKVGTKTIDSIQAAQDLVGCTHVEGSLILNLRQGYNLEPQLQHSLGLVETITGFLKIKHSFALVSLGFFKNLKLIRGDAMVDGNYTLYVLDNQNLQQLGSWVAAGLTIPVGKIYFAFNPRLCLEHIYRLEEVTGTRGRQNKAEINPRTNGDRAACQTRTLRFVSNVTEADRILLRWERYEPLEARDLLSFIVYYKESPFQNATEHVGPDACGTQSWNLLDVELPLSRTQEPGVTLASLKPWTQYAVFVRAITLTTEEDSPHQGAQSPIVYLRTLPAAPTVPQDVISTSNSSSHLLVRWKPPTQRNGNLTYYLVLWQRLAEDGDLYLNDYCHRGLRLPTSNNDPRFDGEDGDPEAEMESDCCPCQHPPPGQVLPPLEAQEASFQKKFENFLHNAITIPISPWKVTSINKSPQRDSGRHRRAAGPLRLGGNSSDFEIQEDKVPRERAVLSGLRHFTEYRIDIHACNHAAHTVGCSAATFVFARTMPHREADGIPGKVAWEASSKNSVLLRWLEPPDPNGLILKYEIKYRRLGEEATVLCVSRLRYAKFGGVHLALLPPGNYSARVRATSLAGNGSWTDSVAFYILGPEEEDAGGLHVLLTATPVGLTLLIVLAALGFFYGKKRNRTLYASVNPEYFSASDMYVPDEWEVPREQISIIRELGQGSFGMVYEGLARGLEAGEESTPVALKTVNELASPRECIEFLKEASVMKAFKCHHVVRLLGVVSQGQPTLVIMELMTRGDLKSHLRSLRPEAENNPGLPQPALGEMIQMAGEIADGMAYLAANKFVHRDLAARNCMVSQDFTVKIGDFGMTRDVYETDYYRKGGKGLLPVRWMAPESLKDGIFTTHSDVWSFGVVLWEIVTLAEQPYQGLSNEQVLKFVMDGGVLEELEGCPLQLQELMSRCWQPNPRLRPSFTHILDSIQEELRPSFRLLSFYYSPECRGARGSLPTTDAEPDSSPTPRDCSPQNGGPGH

MAP4K5 = MAP4K5 (Homo sapiens, UniProt Q9Y4K4); conditions: 1 µM; binder
ALK = ALK (Homo sapiens, UniProt Q9UM73); conditions: 1 µM; binder
RIOK3 = RIOK3 (Homo sapiens, UniProt O14730); conditions: 1 µM; binder
ERN1 = ERN1 (Homo sapiens, UniProt O75460); conditions: 1 µM; binder
RPS6KA1 = RPS6KA1 (Homo sapiens, UniProt Q15418); conditions: binder
RPS6KA1, sequence (Q15418 whole entry): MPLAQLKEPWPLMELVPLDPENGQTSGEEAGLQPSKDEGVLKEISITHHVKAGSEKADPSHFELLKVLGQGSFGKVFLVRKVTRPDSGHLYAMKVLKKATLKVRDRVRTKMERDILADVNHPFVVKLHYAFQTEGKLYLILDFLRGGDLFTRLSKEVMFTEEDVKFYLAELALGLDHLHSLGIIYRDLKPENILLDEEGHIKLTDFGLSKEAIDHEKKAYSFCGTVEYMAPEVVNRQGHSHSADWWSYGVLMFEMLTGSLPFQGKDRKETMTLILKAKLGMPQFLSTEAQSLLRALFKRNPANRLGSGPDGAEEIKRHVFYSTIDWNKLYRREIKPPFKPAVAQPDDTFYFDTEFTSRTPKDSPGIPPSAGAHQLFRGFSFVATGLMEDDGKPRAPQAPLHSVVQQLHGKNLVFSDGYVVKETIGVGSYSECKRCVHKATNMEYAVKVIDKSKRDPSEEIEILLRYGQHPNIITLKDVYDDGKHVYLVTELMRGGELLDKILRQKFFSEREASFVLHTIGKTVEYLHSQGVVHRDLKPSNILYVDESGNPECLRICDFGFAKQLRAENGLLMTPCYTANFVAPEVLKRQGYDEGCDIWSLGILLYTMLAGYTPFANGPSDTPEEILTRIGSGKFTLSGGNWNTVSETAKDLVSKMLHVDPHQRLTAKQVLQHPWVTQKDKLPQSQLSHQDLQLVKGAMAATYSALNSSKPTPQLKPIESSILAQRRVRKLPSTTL

NEK5 = NEK5 (Homo sapiens, UniProt Q6P3R8); conditions: 1 µM; binder
NEK5, sequence (Q6P3R8 whole entry): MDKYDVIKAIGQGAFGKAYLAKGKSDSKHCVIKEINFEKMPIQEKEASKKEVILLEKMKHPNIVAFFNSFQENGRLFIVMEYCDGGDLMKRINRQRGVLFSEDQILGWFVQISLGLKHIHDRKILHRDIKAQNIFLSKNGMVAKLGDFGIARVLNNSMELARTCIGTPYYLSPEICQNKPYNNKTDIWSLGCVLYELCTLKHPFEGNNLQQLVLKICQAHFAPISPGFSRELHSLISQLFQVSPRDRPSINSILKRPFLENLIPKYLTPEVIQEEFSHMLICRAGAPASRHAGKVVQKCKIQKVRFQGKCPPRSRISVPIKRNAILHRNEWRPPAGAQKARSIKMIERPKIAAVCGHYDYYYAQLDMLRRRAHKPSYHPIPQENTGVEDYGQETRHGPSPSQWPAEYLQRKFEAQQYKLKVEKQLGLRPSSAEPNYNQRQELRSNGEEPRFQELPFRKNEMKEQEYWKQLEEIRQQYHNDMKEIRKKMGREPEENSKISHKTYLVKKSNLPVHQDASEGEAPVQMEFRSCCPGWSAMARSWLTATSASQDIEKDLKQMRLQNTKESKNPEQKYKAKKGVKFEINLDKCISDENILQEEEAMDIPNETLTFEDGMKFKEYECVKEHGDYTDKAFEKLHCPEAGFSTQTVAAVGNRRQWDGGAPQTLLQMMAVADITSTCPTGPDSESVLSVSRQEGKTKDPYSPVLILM

EGFR(E746-A750del) = EGFR(E746-A750del) (Homo sapiens, UniProt P00533, DEL746-750); conditions: 1 µM; binder
MINK = MINK (Homo sapiens, UniProt Q8N4C8); conditions: 1 µM; binder
TNNI3K = TNNI3K (Homo sapiens, UniProt Q59H18); conditions: 1 µM; binder
PIK3CA(I800L) = PIK3CA(I800L) (Homo sapiens, UniProt P42336, I800L); conditions: 1 µM; binder
ALK(L1196M) = ALK(L1196M) (Homo sapiens, UniProt Q9UM73, L1196M); conditions: 1 µM; binder
PFTK1 = PFTK1 (Homo sapiens, UniProt O94921); conditions: 1 µM; binder
DAPK3 = DAPK3 (Homo sapiens, UniProt O43293); conditions: 1 µM; binder
TRKA = TRKA (Homo sapiens, UniProt P04629); conditions: 1 µM; binder
EPHB3 = EPHB3 (Homo sapiens, UniProt P54753); conditions: 1 µM; binder
EPHB1 = EPHB1 (Homo sapiens, UniProt P54762); conditions: 1 µM; binder
FYN = FYN (Homo sapiens, UniProt P06241); conditions: 1 µM; binder
FYN, sequence (P06241 whole entry): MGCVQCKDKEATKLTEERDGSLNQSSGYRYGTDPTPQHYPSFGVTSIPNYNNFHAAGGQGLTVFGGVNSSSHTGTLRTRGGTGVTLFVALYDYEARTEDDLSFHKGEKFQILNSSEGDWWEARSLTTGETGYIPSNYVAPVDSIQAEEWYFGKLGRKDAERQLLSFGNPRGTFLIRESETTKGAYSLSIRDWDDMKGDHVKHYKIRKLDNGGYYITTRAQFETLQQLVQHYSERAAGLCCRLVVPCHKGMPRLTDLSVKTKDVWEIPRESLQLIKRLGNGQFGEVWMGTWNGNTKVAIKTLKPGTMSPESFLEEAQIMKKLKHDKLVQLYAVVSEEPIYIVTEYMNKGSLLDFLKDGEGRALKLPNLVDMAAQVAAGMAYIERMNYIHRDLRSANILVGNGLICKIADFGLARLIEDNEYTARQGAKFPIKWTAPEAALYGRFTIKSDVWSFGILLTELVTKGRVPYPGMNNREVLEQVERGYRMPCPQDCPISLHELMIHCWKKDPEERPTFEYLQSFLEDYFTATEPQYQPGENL

ERK8 = ERK8 (Homo sapiens, UniProt Q8TD08); conditions: 1 µM; binder
NEK10 = NEK10 (Homo sapiens, UniProt Q6ZWH5); conditions: 1 µM; binder
NEK10, sequence (Q6ZWH5 whole entry): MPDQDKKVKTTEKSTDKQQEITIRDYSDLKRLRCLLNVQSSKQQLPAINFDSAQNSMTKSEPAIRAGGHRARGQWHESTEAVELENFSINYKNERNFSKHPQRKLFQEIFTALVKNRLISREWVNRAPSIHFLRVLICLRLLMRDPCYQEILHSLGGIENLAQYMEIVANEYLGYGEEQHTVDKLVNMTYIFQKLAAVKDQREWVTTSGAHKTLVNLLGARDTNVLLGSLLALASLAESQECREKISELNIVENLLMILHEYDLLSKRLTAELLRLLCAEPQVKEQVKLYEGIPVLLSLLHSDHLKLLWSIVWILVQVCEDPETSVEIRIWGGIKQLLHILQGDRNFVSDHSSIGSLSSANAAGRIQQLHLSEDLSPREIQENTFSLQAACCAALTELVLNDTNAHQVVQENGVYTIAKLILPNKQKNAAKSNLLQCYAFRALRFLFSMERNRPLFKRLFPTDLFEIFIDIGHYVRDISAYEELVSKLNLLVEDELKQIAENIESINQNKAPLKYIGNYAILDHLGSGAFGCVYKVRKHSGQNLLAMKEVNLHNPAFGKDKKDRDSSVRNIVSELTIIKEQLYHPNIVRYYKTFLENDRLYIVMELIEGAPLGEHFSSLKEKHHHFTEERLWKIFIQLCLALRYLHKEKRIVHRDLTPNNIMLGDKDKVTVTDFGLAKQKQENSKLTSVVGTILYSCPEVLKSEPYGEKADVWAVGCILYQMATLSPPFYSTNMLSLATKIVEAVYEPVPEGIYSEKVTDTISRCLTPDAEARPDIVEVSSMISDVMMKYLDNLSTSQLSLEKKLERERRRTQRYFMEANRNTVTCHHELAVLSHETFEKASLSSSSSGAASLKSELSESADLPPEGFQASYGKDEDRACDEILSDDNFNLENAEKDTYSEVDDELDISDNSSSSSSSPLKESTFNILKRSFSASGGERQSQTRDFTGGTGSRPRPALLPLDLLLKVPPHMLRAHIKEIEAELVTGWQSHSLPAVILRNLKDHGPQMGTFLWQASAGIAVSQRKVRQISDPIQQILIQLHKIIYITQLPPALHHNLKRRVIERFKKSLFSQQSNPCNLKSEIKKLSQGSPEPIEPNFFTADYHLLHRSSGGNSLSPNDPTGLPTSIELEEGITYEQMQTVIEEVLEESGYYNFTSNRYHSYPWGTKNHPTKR

p38-alpha = p38-alpha (Homo sapiens, UniProt Q16539); conditions: 1 µM; binder
PRKCH = PRKCH (Homo sapiens, UniProt P24723); conditions: 1 µM; binder
AKT1 = AKT1 (Homo sapiens, UniProt P31749); conditions: 1 µM; binder
AKT1, sequence (P31749 whole entry): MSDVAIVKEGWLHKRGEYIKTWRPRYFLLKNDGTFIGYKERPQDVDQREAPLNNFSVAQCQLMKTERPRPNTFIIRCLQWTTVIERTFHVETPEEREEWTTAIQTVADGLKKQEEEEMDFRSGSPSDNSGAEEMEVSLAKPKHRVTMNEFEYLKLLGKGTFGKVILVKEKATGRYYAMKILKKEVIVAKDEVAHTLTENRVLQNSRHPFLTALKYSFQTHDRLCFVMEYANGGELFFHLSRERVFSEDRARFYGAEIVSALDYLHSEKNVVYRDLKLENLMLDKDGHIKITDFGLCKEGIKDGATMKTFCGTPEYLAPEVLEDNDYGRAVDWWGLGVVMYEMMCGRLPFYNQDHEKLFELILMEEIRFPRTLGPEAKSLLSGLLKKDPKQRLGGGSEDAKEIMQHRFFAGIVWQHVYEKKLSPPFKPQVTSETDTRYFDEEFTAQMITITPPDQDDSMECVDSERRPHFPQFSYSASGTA

BRAF = BRAF (Homo sapiens, UniProt P15056); conditions: 1 µM; binder
ASK1 = ASK1 (Homo sapiens, UniProt Q99683); conditions: 1 µM; binder
NEK4 = NEK4 (Homo sapiens, UniProt P51957); conditions: 1 µM; binder

With `CNc1ncc2cc(-c3ccc(-c4cccc(C)n4)cc3Cl)c(=O)n(C[C@H]3OC[C@H](N)CO3)c2n1` [compound 6, G-5555] the “Percent Control” value (p38-gamma) was 100%, the “Percent Control” value (KIT(A829P)) was 63% and the “Percent Control” value (LIMK1) was 59%. The “Percent Control” value (CAMK4) was 96%, the “Percent Control” value (INSRR) was 100% and the “Percent Control” value (MAP4K5) was 5.3%. The “Percent Control” value (ALK) was 84%, the “Percent Control” value (RIOK3) was 90% and the “Percent Control” value (ERN1) was 100%. For the same compound, the “Percent Control” value (RPS6KA1; Kin.Dom.1 N-terminal) was 69%, the “Percent Control” value (RPS6KA1; Kin.Dom.2 C-terminal, 1 µM) was 81% and the “Percent Control” value (NEK5) was 100%. The “Percent Control” value (EGFR(E746-A750del)) was 100%, the “Percent Control” value (MINK) was 26% and the “Percent Control” value (TNNI3K) was 98%. For the same compound, the “Percent Control” value (PIK3CA(I800L)) was 100%, the “Percent Control” value (ALK(L1196M)) was 100% and the “Percent Control” value (PFTK1) was 100%. For the same compound, the “Percent Control” value (DAPK3) was 100%, the “Percent Control” value (TRKA) was 64% and the “Percent Control” value (EPHB3) was 100%. For the same compound, the “Percent Control” value (EPHB1) was 100%, the “Percent Control” value (FYN) was 87% and the “Percent Control” value (ERK8) was 100%. For the same compound, the “Percent Control” value (NEK10) was 100%, the “Percent Control” value (p38-alpha) was 100% and the “Percent Control” value (PRKCH) was 78%. The “Percent Control” value (AKT1) was 100%, the “Percent Control” value (BRAF) was 100% and the “Percent Control” value (ASK1) was 71%. The “Percent Control” value (NEK4) was 100%.
